This note sets out measurements from patent publication US20230382923A1, “FUSED TETRACYCLIC QUINAZOLINE DERIVATIVES AS INHIBITORS OF ERBB2” (EnLiven Therapeutics, Inc., priority 2021, published 2023).

In assay [1] the target is phosphorylated EGFR (pEGFR) (Homo sapiens (Human), UniProt P00533). Nature of the assay: Detection of phosphorylated EGFR (pEGFR) by AlphaLISA in A431 cells. The assay is classed as cell-based. Particulars: A431 cells (10% FBS), 4 hours incubation, EGF 30 ng/mL for 10 minutes. As for the experimental part: […] were performed to measure phosphorylated EGFR levels using A431 cells (10% FBS). A431 (1.0*10^4cells/40 μl/well) cells were seeded in 384 well. Compounds were dissolved in DMSO, serially diluted in DMSO and then were added, mixed, and incubated for 4 hours at 37° C., […]. Following the 4-hours incubation, cells were stimulated for 10 minutes with EGF (Invitrogen, cat #PHG0311) at a final concentration of 30 ng/mL in the incubator. The media was aspirated and cells were lysed in 10 μL lysis buffer with protease and phosphatase inhibitors (PerkinElmer, cat #ALSU-PEGFR-A50K). The plates were placed on a shaker for 5 minutes and then incubated for 30 min at 4° C. for complete lysis. The lysate was transferred to an Optiplate (Perkin Elmer, cat #6007290).
Acceptor mix (PerkinElmer, cat #ALSU-PEGFR-A50K) was prepared just before use and 5 μL was dispensed to all the wells, followed by a 1.5-2 h incubation at room temperature in dark. The donor mix (PerkinElmer, cat #ALSU-PEGFR-A50K) was prepared under low light conditions prior to use and 5 μl of donor mix was added to all the wells under subdued lighting or green filters. The plates were placed on a shaker for 5 min, sealed, and incubated overnight at room temperature in dark. Plates were read on the Envision (PerkinElmer) using standard AlphaLISA settings.
The percentage of inhibition on EGFR phosphorylation was calculated following equation: % Inhibition=100×(LumHC−LumSample)/(LumHC−LumLC). The low and high controls (LC/HC) are generated from lysate from wells with cells treated with DMSO or […] Staurosporine (BioAustralis, cat #BIA-S1086), […]. IC50 values were calculated by fitting the Curve using XLfit (v5.3.1.3), equation 201: Y=Bottom+(Top−Bottom)/(1+10^((LogIC50−X)*HillSlope)).
For orientation: Alpha assays give light when donor and acceptor beads are brought close together.

For assay [2], the target named is phosphorylated ERBB2 (pERBB2) (Homo sapiens (Human), UniProt P04626). Nature of the assay: Detection of phosphorylated ERBB2 (pERBB2) by ELISA in BT-474 cells. Particulars: four hours incubation with compound. The assay is classed as cell-based. As for the experimental part:
BT-474 cells were seeded into a 96-well at 2.0*10^4cells/100 μl/well. Compounds were dissolved and serially diluted in DMSO. The compounds were then were added, mixed, and incubated for four hours at 37° C., 5% CO2. […] Following the four hour incubation with compounds, cell lysates were prepared. Plates were centrifuged for 5 min at 3000 RPM, and supernatant was removed from each well. Cells were washed 3 times by resuspension in 150 μl PBS, followed by centrifugation and removal of the supernatant, as above. 100 μl of cell lysis buffer (Boston BioProducts, cat #BP-115D) supplied with 1×complete ULTRA cocktail inhibitor (Thermo ScientificTM, cat #78443) was then added to the washed cells. Cells were incubated with lysis buffer for 1 hour at 4° C., and then stored at -80° C. Enzyme-linked immunosorbent assays (ELISA) were performed to measure phosphorylated ERBB2 levels. […] The next day, plates were washed with PBS+0.05% Tween20 (PBST). 150 μl of 5% BSA blocking solution was added for 1 hour at room temperature, with shaking. Plates were washed with PBST. Cell lysates were thawed and 100 μl of lysate was added to the ELISA plate. The plates were incubated for 2 hours at room temperature, with shaking. ELISA plates were then washed with PBST and 100 μl of an HRP-labeled detection antibody that binds phosphorylated tyrosine (R&D Systems, cat #841913) was added to each well. Plates were incubated for 1 hour at room temperature, with shaking. Plates were then washed with PBST, and 100 μl TMB substrate solution (R&D Systems, cat #DY999) was added. Plate were incubated in the dark for 20 minutes at room temperature. 50 μl of Stop solution (R&D Systems, cat #DY994) (50 μl) was added to each well and mixed. […] The remaining kinase activity by calculated using the following formula: % Relative activity=100×([…]). The low and high control values (“LC” and “HC”) were generated from lysate from wells without cells or with cells treated with 0.1% DMSO, respectively.
(An ELISA detects its analyte on a solid surface through an enzyme-linked reagent.)

Each structure is given as a SMILES string.

Chain of phosphorylated ERBB2 (pERBB2) (P04626 23-1255): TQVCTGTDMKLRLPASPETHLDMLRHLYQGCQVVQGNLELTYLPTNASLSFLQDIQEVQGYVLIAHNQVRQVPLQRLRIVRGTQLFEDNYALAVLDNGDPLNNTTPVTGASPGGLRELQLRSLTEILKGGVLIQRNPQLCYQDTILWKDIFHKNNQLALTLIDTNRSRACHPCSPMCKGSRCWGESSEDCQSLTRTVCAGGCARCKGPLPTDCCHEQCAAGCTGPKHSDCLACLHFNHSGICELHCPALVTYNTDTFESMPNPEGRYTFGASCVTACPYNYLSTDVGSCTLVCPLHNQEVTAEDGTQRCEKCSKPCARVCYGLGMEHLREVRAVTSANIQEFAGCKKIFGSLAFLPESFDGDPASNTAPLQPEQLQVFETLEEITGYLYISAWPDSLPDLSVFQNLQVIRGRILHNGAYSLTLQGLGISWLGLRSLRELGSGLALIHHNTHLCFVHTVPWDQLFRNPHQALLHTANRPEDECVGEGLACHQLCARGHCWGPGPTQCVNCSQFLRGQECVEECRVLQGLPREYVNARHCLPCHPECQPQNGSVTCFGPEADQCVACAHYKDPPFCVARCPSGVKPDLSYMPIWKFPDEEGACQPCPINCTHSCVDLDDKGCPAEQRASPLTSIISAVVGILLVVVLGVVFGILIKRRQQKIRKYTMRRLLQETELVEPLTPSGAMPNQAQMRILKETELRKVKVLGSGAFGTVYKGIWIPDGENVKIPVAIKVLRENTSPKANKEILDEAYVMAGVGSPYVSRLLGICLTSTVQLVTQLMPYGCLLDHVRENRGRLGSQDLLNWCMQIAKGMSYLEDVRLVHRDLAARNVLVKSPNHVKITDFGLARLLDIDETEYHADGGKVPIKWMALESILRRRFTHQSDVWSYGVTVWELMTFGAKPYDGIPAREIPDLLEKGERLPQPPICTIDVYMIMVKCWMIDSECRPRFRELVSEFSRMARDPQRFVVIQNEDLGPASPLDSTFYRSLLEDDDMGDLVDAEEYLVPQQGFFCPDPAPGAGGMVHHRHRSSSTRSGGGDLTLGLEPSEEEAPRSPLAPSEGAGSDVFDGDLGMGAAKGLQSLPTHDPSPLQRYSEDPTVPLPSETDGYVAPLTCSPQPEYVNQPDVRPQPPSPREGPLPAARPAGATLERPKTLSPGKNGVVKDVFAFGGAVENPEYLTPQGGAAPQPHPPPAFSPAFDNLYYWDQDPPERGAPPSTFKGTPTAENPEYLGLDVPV
Chain of phosphorylated EGFR (pEGFR) (P00533 25-1210): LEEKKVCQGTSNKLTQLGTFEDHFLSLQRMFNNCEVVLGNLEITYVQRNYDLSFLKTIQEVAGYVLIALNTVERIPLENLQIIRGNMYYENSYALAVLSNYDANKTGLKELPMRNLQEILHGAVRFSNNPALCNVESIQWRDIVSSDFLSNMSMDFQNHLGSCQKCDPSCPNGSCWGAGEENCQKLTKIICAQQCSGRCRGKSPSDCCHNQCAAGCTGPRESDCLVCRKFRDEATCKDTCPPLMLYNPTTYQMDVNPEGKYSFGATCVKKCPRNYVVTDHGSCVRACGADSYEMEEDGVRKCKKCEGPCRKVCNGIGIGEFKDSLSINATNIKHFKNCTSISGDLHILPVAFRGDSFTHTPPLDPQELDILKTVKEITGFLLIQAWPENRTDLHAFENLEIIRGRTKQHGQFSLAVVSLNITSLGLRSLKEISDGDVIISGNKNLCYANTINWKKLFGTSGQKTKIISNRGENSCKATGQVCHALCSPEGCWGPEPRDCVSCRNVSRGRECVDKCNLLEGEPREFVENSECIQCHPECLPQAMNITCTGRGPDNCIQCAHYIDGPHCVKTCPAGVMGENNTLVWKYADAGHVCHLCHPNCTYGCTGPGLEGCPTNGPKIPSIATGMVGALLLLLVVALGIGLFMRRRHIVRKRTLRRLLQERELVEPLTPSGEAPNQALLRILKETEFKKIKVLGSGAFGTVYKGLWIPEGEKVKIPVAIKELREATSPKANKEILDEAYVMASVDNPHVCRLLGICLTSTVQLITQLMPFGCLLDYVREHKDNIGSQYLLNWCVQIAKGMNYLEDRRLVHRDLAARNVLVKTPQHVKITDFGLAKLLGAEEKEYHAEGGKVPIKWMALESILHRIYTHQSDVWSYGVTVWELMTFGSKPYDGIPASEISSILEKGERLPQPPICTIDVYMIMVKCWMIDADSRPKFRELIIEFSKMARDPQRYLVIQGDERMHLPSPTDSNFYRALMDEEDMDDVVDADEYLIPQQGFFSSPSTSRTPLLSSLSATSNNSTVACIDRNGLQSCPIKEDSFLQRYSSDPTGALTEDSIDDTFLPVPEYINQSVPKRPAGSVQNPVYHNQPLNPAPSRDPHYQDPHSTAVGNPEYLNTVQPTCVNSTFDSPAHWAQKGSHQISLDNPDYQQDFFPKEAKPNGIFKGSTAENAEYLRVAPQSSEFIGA

On to `Cc1cc(Nc2ncnc3cc4c(nc23)N2CCN(C(=O)/C=C/CN(C)C)C(CCO4)C2)ccc1Oc1ccn2ncnc2c1` (stereo not drawn) [Compound 52, (E)-1-(4-((4-([1,2,4]triazolo[1,5-a]pyridin-7-yloxy)-3-methylphenyl)amino)-7,8,11,12-tetrahydro-6,10-methanopyrimido[4′,5′:5,6]pyrido[3,2-b][1,4,7]oxadiazecin-9 (10H)-yl)-4-(dimethylamino)but-2-en-1-one], for which the figures for the IC50 in assay [1] and in assay [2] were greater than 10000 nM and 635 nM, respectively.
Regarding `Cc1cc(Nc2ncnc3cc4c(nc23)N2CCN(C(=O)/C=C/CN(C)C)C(CO4)C2)c(F)cc1Oc1ccn2ncnc2c1` (stereo in doubt) [Compound 24, (E)-1-((10S)-4-((4-([1,2,4]triazolo[1,5-a]pyridin-7-yloxy)-2-fluoro-5-methylphenyl)amino)-7,8,10,11-tetrahydro-9H-6,10-methanopyrimido[4′,5′:5,6]pyrido[3,2-b][1,4,7]oxadiazonin-9-yl)-4-(dimethylamino)but-2-en-1-one], the IC50 (usually the concentration that gives 50% inhibition) was 2160 nM in assay [1] and 8.38 nM in assay [2].
Regarding `Cc1cc(Nc2ncnc3cc4c(nc23)N2CCN(C(=O)/C=C/CN(C)C)C(CO4)C2)ccc1Oc1ccn2ccnc2c1` (stereo in doubt) [Compound 34, (E)-4-(dimethylamino)-1-((10S)-4-((4-(imidazo[1,2-a]pyridin-7-yloxy)-3-methylphenyl)amino)-7,8,10,11-tetrahydro-9H-6,10-methanopyrimido[4′,5′:5,6]pyrido[3,2-b][1,4,7]oxadiazonin-9-yl)but-2-en-1-one], the IC50 in assay [1] worked out at 465 nM; in assay [2], 17.7 nM.
For the molecule `Cc1cc(Nc2ncnc3cc4c(cc23)N2CCN(C(=O)/C=C/CN(C)C)C(CO4)C2)ccc1Oc1ccn2ncnc2c1` (stereo in doubt) [Compound 9, (E)-1-((10S)-4-((4-([1,2,4]triazolo[1,5-a]pyridin-7-yloxy)-3-methylphenyl)amino)-7,8,10,11-tetrahydro-9H-6,10-methano[1,4,7]oxadiazonino[3,2-g]quinazolin-9-yl)-4-(dimethylamino)but-2-en-1-one], the IC50 in assay [1] is greater than 10000 nM; in assay [2], 18.9 nM.
With `Cc1c(Oc2ccn3ncnc3c2)ccc(Nc2ncnc3cc4c(nc23)N2CCN(C(=O)/C=C/CN(C)C)C(CO4)C2)c1F` (stereo in doubt) [Compound 35, (E)-1-((10S)-4-((4-([1,2,4]triazolo[1,5-a]pyridin-7-yloxy)-2-fluoro-3-methylphenyl)amino)-7,8,10,11-tetrahydro-9H-6,10-methanopyrimido[4′,5′:5,6]pyrido[3,2-b][1,4,7]oxadiazonin-9-yl)-4-(dimethylamino)but-2-en-1-one], the IC50 in assay [1] came out at 309 nM; in assay [2], 5.48 nM.
Taken in the same sequence, the figures for `Cc1cc(Nc2ncnc3cc4c(nc23)N2CCN(C(=O)/C=C/CN(C)C)CC(CO4)C2)ccc1Oc1ccn2ncnc2c1` (stereo not drawn) [Compound 57, (E)-1-(4-((4-([1,2,4]triazolo[1,5-a]pyridin-7-yloxy)-3-methylphenyl)amino)-7,8,11,12-tetrahydro-6,11-methanopyrimido[4,5′:5,6]pyrido[3,2-b][1,4,7]oxadiazecin-9 (10H)-yl)-4-(dimethylamino)but-2-en-1-one] were greater than 10000 nM and 32.8 nM.
In the case of `Cc1cc(Nc2ncnc3cc4c(nc23)N2CCN(C(=O)/C=C/C3(F)CN(C)C3)C(CO4)C2)ccc1Oc1ccn2ncnc2c1` (stereo in doubt) [Compound 53, (E)-1-((10S)-4-((4-([1,2,4]triazolo[1,5-a]pyridin-7-yloxy)-3-methylphenyl)amino)-7,8,10,11-tetrahydro-9H-6,10-methanopyrimido[4′,5′:5,6]pyrido[3,2-b][1,4,7]oxadiazonin-9-yl)-3-(3-fluoro-1-methylazetidin-3-yl)prop-2-en-1-one], the IC50 in assay [1] is 3390 nM; in assay [2], 51.1 nM.
Turning to `CN(C)C/C=C/C(=O)N1CCN2CC1COc1cc3ncnc(Nc4ccc(Oc5ccn6ncnc6c5)c(Cl)c4)c3nc12` (stereo in doubt) [Compound 32, (E)-1-((10S)-4-((4-([1,2,4]triazolo[1,5-a]pyridin-7-yloxy)-3-chlorophenyl)amino)-7,8,10,11-tetrahydro-9H-6,10-methanopyrimido[4′,5′:5,6]pyrido[3,2-b][1,4,7]oxadiazonin-9-yl)-4-(dimethylamino)but-2-en-1-one], the IC50 in assay [1] turned out to be 920 nM; in assay [2], 8.41 nM.
Taken in the same sequence, the figures for `Cc1cc(Nc2ncnc3cc4c(nc23)N2CCN(C(=O)/C=C/CN(C)C)C(CO4)C2)ccc1Oc1ccn2ncnc2c1` (stereo in doubt) [Compound 10, (E)-1-((10S)-4-((4-([1,2,4]triazolo[1,5-a]pyridin-7-yloxy)-3-methylphenyl)amino)-7,8,10,11-tetrahydro-9H-6,10-methanopyrimido[4′,5′:5,6]pyrido[3,2-b][1,4,7]oxadiazonin-9-yl)-4-(dimethylamino)but-2-en-1-one] were 3040 nM and 5.2 nM.
As for `[2H]C([2H])(/C=C/C(=O)N1CCN2CC1COc1cc3ncnc(Nc4cc(C)c(Oc5ccn6ncnc6c5)cc4F)c3nc12)N(C)C` (stereo in doubt) [Compound 58, (E)-1-((10S)-4-((4-([1,2,4]triazolo[1,5-a]pyridin-7-yloxy)-2-fluoro-5-methylphenyl)amino)-7,8,10,11-tetrahydro-9H-6,10-methanopyrimido[4′,5′:5,6]pyrido[3,2-b][1,4,7]oxadiazonin-9-yl)-4-(dimethylamino)but-2-en-1-one-4,4-d2], the IC50 in assay [1] was 869 nM; in assay [2], 5.5 nM.
`Cc1cc(Nc2ncnc3cc4c(nc23)N2CCN(C(=O)/C=C/C3CN(C)C3)C(CO4)C2)ccc1Oc1ccn2ncnc2c1` (stereo in doubt) [Compound 45, (E)-1-((10S)-4-((4-([1,2,4]triazolo[1,5-a]pyridin-7-yloxy)-3-methylphenyl)amino)-7,8,10,11-tetrahydro-9H-6,10-methanopyrimido[4′,5′:5,6]pyrido[3,2-b][1,4,7]oxadiazonin-9-yl)-3-(1-methylazetidin-3-yl)prop-2-en-1-one]: the IC50 is greater than 10000 nM in assay [1] and 27.3 nM in assay [2].
Take `CN(C)C/C=C/C(=O)N1CCN2C[C@H]1COc1cc3ncnc(Nc4cc(F)c(Oc5ccn6ncnc6c5)cc4F)c3nc12` [Compound 48, (E)-1-((10S)-4-((4-([1,2,4]triazolo[1,5-a]pyridin-7-yloxy)-2,5-difluorophenyl)amino)-7,8,10,11-tetrahydro-9H-6,10-methanopyrimido[4′,5′:5,6]pyrido[3,2-b][1,4,7]oxadiazonin-9-yl)-4-(dimethylamino)but-2-en-1-one]: the IC50 in assay [1] worked out at 3300 nM; in assay [2] it was 10.8 nM.
